Reference: patent US8222244B2, “Staurosporine derivatives as inhibitors of FLT3 receptor tyrosine kinase activity” (Novartis AG, priority 2001, dated 2012)
“Also recorded” adds a separate entry of the source.

Key:
Ba/F3-FLT3-D835Y cells = settings: in 24-72 hours
Description: (§1) To search for FLT3-targeted compounds, the applicant screened the inhibitory effects of several compounds on two different kinds of assays. • Tyrosine protein kinase assays with purified GST-Flt-3 were carried in a final volume of 30 μL containing 200-1800 ng of enzyme protein. The activity was assayed in the presence or absence of inhibitors, by measuring the incorporation of ^33P from [γ^33P] ATP into appropriate substrates. […] Cell lines expressing two different forms of mutated, activated FLT3 are used: Ba/F3-FLT3-ITD cells expressing a FLT3 mutant with an “Internal Tandem Duplication” (ITD) within the juxtamembrane domain of the receptor. Ba/F3-FLT3-D835Y cells expressing an FLT3 receptor containing a mutation converting […] at position 835 to Tyrosine.
(§2) A cell based assay is utilised to identify inhibitors of mutant FLT3 tyrosine kinase receptors.
(§3) The cell lines used for the initial screening are sublines of Ba/F3 cells that are engineered to express mutant or over-express wild-type (non-mutated) FLT3 following infection with a retrovirus expressing appropriate FLT3 cDNAs. The parent cell line, Ba/F3 is dependent on interleukin-3 for proliferation, and when deprived of IL-3, the cells rapidly cease proliferation and die. The retrovirus expresses FLT3 from the retrovirual LTR and the neo gene from an IRES site.

Ba/F3-FLT3-ITD cells = settings: in 24-72 hours
Description: as §1, §2, §3

[1] = test system: human leukemia and lymphoma cell lines that did not have mutant FLT3 receptors; test: Cytotoxicity against leukemia and lymphoma cell lines without mutant FLT3 receptors; format: cell-based; settings: at the concentrations required to inhibit the proliferation of FLT3-dependent cell-lines
human Flt-3 = target: T1, human Flt-3 (Homo sapiens, UniProt P36888); test: Tyrosine protein kinase assay with purified GST-Flt-3 (33P incorporation); format: biochemical; settings: at a 1.0 micromolar concentration
T1 construct: expresses the amino acid region amino acids 563-993 of the intra-cytoplasmic kinase domains of human Flt-3; made in house; host or cells: Sf9 insect cells (baculovirus, pFbacG01 donor vector)
T1 sequence (P36888 563-993): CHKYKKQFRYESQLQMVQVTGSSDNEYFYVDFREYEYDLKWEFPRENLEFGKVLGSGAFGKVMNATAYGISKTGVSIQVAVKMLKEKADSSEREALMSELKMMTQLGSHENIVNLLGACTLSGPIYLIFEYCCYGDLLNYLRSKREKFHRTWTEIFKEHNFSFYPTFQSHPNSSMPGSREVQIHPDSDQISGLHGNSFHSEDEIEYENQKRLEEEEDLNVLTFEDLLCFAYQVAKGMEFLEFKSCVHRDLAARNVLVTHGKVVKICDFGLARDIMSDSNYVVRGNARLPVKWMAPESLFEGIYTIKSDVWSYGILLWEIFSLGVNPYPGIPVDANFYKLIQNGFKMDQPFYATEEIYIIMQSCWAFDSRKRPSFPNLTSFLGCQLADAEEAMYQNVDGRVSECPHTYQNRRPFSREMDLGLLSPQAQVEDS
Summary of the method: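 GST-fused Flt-3 cytoplasmic domain, expressed in baculovirus-infected Sf9 cells and purified, phosphorylates substrate with [γ-33P]ATP. Reaction spotted onto PVDF membranes, washed with H3PO4 and ethanol, and incorporated 33P counted by scintillation.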

Row | Compound | G1 cell cycle arrest and apoptosis (Ba/F3-FLT3-D835Y cells) | G1 cell cycle arrest and apoptosis (Ba/F3-FLT3-ITD cells) | cytotoxicity [1] | Flt3 Inhibition (percent inhibition of Flt3 kinase activity) (human Flt-3) [%]
1 | CO[C@@H]1[C@H](N(C)C(=O)c2ccccc2)C[C@H]2O[C@]1(C)n1c3ccccc3c3c4c(c5c6ccccc6n2c5c31)C(=O)NC4 [MIDOSTAURIN, N-[(9S,10R,11R,13R)-2,3,10,11,12,13-hexahydro-10-methoxy-9-methyl-1-oxo-9,13-epoxy-1H,9H-diindolo[1,2,3-gh:3′,2′,1′-Im]pyrrolo[3,4-j][1,7]benzodiazonin-11-yl]-N-methylbenzamide] | induced both G1 cell cycle arrest and apoptosis | induced both G1 cell cycle arrest and apoptosis | not cytotoxic; also recorded: not cytoxic | –
2 | (9a,10b,11b,13a)-11-[(N-Acetyl-6-O-acetyl-1-deoxymuramoyl)methylamino]-2,3,10,11,12,13-hexahydro-10-methoxy-9-methyl-, 11-[(N-acetyl-6-O-acetyl-1-deoxymuramoyl)methylamino]-2,3,10,11,12,13-hexahydro-10-methoxy-9-methyl-9,13-epoxy-1H,9H-diindolo[1,2,3-gh:3′,2′,1′-lm]pyrrolo[3,4-j][1,7]benzodiazonin-1-one [149622-68-4] | – | – | – | 93
3 | CO[C@@H]1[C@H](N(C)C(=O)c2ccccc2)C[C@H]2O[C@]1(C)n1c3ccccc3c3c4c(c5c6ccccc6n2c5c31)C(=O)NC4O (stereo partly shown) [179237-49-1, N-(2,3,10,11,12,13-Hexahydro-3-hydroxy-10-methoxy-9-methyl-1-oxo-9,13-epoxy-1H,9H-diindolo[1,2,3-gh:3′,2′,1′-lm]pyrrolo[3,4-j][1,7]benzodiazonin-11-yl)-N-methyl-benzamide] | – | – | – | 41
4 | [9S-(9a,10b,11b,13a)]-(2,3,10,11,12,13-Hexahydro-10-methoxy-9-methyl-1-oxo-9,13-epoxy-1H,9H-diindolo[1,2,3-gh:3′,2′,1′-lm]pyrrolo[3,4-j][1,7]benzodiazonin-11-yl)methyl-carbamic acid, 2-methylpropyl ester [154590-03-1] | – | – | – | 49
5 | (2,3,10,11,12,13-hexahydro-10-methoxy-9-methyl-1-oxo-9,13-epoxy-1H,9H-diindolo[1,2,3-gh:3′,2′,1′-lm]pyrrolo[3,4-j][1,7]benzodiazonin-11-yl)methyl-carbamic acid, phenylmethyl ester [159404-67-8] | – | – | – | 64
